In patent publication US20150336889A1, “INDOLE DERIVATIVES, PHARMACEUTICAL COMPOSITIONS CONTAINING SUCH INDOLES AND THEIR USE AS DNA METHYLATION MODULATORS” (IKERCHEM, S.L., priority 2012, published 2015):
Where a name gives a salt, the structure may show the parent alone.

What was measured:
[1] = target: T1, Human DNMT1 (Homo sapiens, UniProt P26358); test: DNMT1 enzymatic activity inhibition, radioisotope-based 3H-SAM filter binding assay; format: biochemical; details: 1 μM SAM, 25 nM DNMT1, 0.005 mg/ml Poly(dI-dC), 30° C. 1 hour, 10-dose
T1 construct: a-a 2-1632, with N-terminal GST tag; GST (N)
T1 sequence (P26358 2-1632 isoform P26358-2): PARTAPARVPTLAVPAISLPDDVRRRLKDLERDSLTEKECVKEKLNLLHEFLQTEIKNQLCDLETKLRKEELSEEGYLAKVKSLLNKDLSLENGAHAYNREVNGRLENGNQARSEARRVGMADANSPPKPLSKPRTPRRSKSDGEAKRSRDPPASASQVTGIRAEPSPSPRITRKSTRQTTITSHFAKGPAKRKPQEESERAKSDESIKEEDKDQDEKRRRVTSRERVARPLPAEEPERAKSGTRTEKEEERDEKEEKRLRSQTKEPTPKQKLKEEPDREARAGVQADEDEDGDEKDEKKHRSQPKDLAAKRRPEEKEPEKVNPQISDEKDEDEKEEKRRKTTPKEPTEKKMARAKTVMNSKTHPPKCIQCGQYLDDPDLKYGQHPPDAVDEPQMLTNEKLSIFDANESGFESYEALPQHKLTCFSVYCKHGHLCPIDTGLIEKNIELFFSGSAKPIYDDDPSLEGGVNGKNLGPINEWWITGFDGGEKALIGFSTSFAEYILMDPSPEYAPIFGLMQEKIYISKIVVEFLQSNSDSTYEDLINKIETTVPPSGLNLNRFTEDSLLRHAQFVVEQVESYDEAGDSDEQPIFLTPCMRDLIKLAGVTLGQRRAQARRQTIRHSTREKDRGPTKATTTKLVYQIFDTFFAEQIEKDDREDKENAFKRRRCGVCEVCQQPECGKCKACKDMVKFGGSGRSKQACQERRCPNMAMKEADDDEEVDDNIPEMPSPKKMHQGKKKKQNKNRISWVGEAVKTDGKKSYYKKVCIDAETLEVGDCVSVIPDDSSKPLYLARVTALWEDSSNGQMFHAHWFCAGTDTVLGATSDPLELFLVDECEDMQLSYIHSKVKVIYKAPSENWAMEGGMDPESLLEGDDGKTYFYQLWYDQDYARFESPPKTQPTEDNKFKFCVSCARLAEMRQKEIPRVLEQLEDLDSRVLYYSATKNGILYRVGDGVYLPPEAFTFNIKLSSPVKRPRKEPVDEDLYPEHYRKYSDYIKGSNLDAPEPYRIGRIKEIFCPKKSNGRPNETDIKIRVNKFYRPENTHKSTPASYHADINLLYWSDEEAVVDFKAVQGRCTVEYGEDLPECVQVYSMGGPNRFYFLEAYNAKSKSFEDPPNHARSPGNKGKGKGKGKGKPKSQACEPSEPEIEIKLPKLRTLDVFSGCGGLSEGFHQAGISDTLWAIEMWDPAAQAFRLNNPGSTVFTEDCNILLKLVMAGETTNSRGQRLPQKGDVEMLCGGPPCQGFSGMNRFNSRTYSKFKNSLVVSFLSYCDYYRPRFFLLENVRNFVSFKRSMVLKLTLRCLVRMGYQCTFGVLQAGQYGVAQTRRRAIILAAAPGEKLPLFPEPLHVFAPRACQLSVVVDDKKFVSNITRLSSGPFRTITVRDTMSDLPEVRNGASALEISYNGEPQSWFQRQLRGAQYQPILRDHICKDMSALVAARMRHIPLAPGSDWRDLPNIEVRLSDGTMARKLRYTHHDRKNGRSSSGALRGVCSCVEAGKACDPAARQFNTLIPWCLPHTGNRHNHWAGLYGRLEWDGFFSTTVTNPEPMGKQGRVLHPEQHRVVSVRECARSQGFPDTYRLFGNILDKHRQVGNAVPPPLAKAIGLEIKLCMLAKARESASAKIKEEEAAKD
Experimental: The inhibition of the enzymatic activity of DNMT1 was tested using low volume radioisotope-based assay which uses tritium-labeled AdoMet (^3H-SAM) as a methyl donor. Inhibitors diluted in DMSO were added by using acoustic technology (Echo550, Labcyte Inc. Sunnyvale, Calif.) into enzyme/substrate mixture in nano-liter range. The reaction was initiated by the addition of ^3H-SAM, and incubated at 30° C. for 1 hour. Total final methylations on the substrate poly(dI-dC) were detected by a filter binding approach. Data analysis was performed using GraphPad Prism software (La Jolla, Calif.) for IC50 curve fits.

[2] = system: MCF-7; test: Cancer cell growth inhibition, MCF-7; format: cell-based; details: Homo sapiens, MCF7; Breast, MCF-7, cell viability, 72 h
Experimental: (§1) Cell culture-based assays were used to evaluate the ability of compounds of the invention to inhibit cancer cell growth inhibition.
(§2) Cells were obtained from the American Type Culture Collection (ATCC) and European Collection of Cell Cultures (ECACC).
(§3) Cells were thawed in their appropriate media plus supplements (see table below). Cells were passaged at confluence by washing once in HBSS cation-free followed by a 3 minutes incubation with trypsin ([0.5 μg/ml]/EDTA [0.2 μg/ml]) (Gibco-BRL, 15400054) solution in HBSS at 37° C. (except non-adherent cell lines), and transferred to their appropriate media plus supplements. Prior to seeding at defined cell concentration, cells were recovered in medium, centrifuged and taken up in medium, and counted.
(§4) Cells were plated at 3000/5000/10000 cells/well in 100 μl media in tissue culture 96 well plates (Cultek). After 24 h, media was supplemented by 100 μl/well of diluted IPDNs at 100 μM.
(§5) The Hexosaminidase assay was used for the adherent cell lines, whereas the AlamarBlue® assay was used for the non-adherent cell lines.
(§6) Dose-response curves were generated by serial dilutions (1:1) of the compounds. […] Reagent blanks, containing media plus colorimetric reagent without cells were run on each plate. Blank values were subtracted from test values and were routinely 5-10% of uninhibited control values. Plates were incubated 72 h, and living cell number was determined by AlamarBlue® and Hexosaminidase test. The advantages of using those assays are that both can be done in the same microwell plate. AlamarBlue® assay: plates were incubated 72 h and living cell number was determined by AlamarBlue (Biosource DAL1100). After 4 h incubation at 37° C., relative fluorescent intensity, which correlates with the number of living cells, was read in a Cytofluor plate reader (Millipore) at 535/590 nm (Excitation/emission). The hexosaminidase activity was measured according to the following protocol: the media was removed and cells were washed once with PBS.
(§7) Data analysis was done by calculating the percentage of cell viability normalized in front of negative control values, which were considered as a 100%. The curve was adjusted using a sigmoidal dose-response (variable slope) equation and EC50 values were obtained from the equation
(§8) where, X is the logarithm of concentration. Y is the response. Bottom is the Y value at the bottom plateau Top is the Y value at the top plateau LogEC50 is the X value when the response is halfway between Bottom and Top. With different kinds of variables, this variable is sometimes called ED50 (effective dose, 50%), or IC50 (inhibitory concentration, 50%, used when the curve goes downhill).

[3] = system: T47D; test: Cancer cell growth inhibition, T47D; format: cell-based; details: Homo sapiens, Breast, cell viability, 72 h
Experimental: as §1, §2, §3, §4, §5, §6, §7, §8

[4] = system: HCT-116; test: Cancer cell growth inhibition, HCT-116; format: cell-based; details: Homo sapiens; Colorectal, HCT-116, cell viability, 72 h
Experimental: as §1, §2, §3, §4, §5, §6, §7, §8

[5] = system: NCI-H1975; test: Cancer cell growth inhibition, NCI-H1975; format: cell-based; details: Homo sapiens; Lung, NCI-H1975, cell viability, 72 h
Experimental: as §1, §2, §3, §4, §5, §6, §7, §8

[6] = system: NCI-H358; test: Cancer cell growth inhibition, NCI-H358; format: cell-based; details: Homo sapiens; Lung, NCI-H358, cell viability, 72 h
Experimental: as §1, §2, §3, §4, §5, §6, §7, §8

[7] = system: SK-HEP-1; test: Cancer cell growth inhibition, SK-HEP-1; format: cell-based; details: Homo sapiens, SK-HEP1; Liver, SK-HEP-1, cell viability, 72 h
Experimental: as §1, §2, §3, §4, §5
as §6, with “PBS. […]” for “PBS.”

[8] = system: MiaPaCa-2; test: Cancer cell growth inhibition, MiaPaCa-2; format: cell-based; details: Homo sapiens, MIA PaCa-2; Pancreatic, MiaPaCa-2, cell viability, 72 h
Experimental: as §1, §2, §3, §4, §5, §6, §7, §8

[9] = system: MDA-MB-435; test: Cancer cell growth inhibition, MDA-MB-435; format: cell-based; details: Homo sapiens; Melanoma, MDA-MB-435, cell viability, 72 h
Experimental: as §1, §2, §3, §4, §5, §6, §7, §8

[10] = system: Daoy; test: Cancer cell growth inhibition, Daoy; format: cell-based; details: Homo sapiens, Brain, cell viability, 72 h
Experimental: as §1, §2, §3, §4, §5, §6, §7, §8

[11] = system: U-87MG; test: Cancer cell growth inhibition, U-87MG; format: cell-based; details: Homo sapiens, Brain, cell viability, 72 h
Experimental: as §1, §2, §3, §4, §5, §6, §7, §8

[12] = system: A-431; test: Cancer cell growth inhibition, A-431; format: cell-based; details: Homo sapiens; Epidermoid, A-431, cell viability, 72 h
Experimental: as §1, §2, §3, §4, §5, §6, §7, §8

[13] = system: CCFR-CEM; test: Cancer cell growth inhibition, CCFR-CEM; format: cell-based; details: Hematologic, cell viability, 72 h
Experimental: as §1, §2, §3, §4, §5, §6, §7, §8

[14] = system: Jurkat; test: Cancer cell growth inhibition, Jurkat; format: cell-based; details: Homo sapiens, Hematologic, cell viability, 72 h
Experimental: as §1, §2, §3, §4, §5, §6, §7, §8

[15] = system: RPMI-8226; test: Cancer cell growth inhibition, RPMI-8226; format: cell-based; details: Homo sapiens; Multiple Myelome, RPMI-8226, cell viability, 72 h
Experimental: as §1, §2, §3, §4, §5, §6, §7, §8

SMILES | IC50 [1] | also measured
COc1ccc2c(-c3ccc(O)cc3)cn(CC(=O)c3ccc(O)cc3)c2c1 [Example 1, 1-(4-hydroxyphenyl)-2-[3-(4-hydroxyphenyl)-6-methoxy-1H-indol-1-yl]ethanone] | 73.1 µM | –
COc1ccc2c(-c3cccc(O)c3)cn(CC(=O)c3cccc(O)c3)c2c1 [Example 2, 1-(3-hydroxyphenyl)-2-[3-(3-hydroxyphenyl)-6-methoxy-1H-indol-1-yl]ethanone] | 30.6 µM | –
COc1ccc2c(-c3ccc(O)c(O)c3O)cn(CC(=O)c3ccc(O)c(O)c3O)c2c1 [Example 5, 2-[6-methoxy-3-(2,3,4-trihydroxyphenyl)-1H-indol-1-yl]-1-(2,3,4-trihydroxyphenyl) ethanone] | 3.53 µM | –
COc1cc(OC)c2c(-c3cc(O)cc(O)c3)cn(CC(=O)c3cc(O)cc(O)c3)c2c1 [Example 10, 1-(3,5-dihydroxyphenyl)-2-[3-(3,5-dihydroxyphenyl)-4,6-dimethoxy-1H-indol-1-yl]ethanone] | 44.6 µM | –
COc1ccc(OC)c2c1c(-c1ccc(O)cc1)cn2CC(=O)c1ccc(O)cc1 [Example 13, 1-(4-hydroxyphenyl)-2-[3-(4-hydroxyphenyl)-4,7-dimethoxy-1H-indol-1-yl]ethanone] | 98.4 µM | –
COc1cc2c(-c3ccc(O)cc3)cn(CC(=O)c3ccc(O)cc3)c2cc1OC [Example 14, 1-(4-hydroxyphenyl)-2-[3-(4-hydroxyphenyl)-5,6-dimethoxy-1H-indol-1-yl]ethanone] | 43.3 µM | –
COc1cc2c(cc1O)c(-c1ccc(O)cc1)cn2CC(=O)c1ccc(O)cc1 [Example 15, 2-[5-hydroxy-3-(4-hydroxyphenyl)-6-methoxy-1H-indol-1-yl]-1-(4-hydroxyphenyl)ethanone] | 576 µM | –
O=C(Cn1cc(-c2ccc(O)cc2)c2ccc(O)cc21)c1ccc(O)cc1 [Example 17, 2-[6-hydroxy-3-(4-hydroxyphenyl)-1H-indol-1-yl]-1-(4-hydroxyphenyl) ethanone] | 50.9 µM | –
O=C(Cn1cc(-c2ccc(O)cc2)c2cc(O)ccc21)c1ccc(O)cc1 [Example 18, 2-[5-hydroxy-3-(4-hydroxyphenyl)-1H-indol-1-yl]-1-(4-hydroxyphenyl) ethanone] | 32.9 µM | –
O=C(Cn1cc(-c2ccc(O)cc2)c2cc(F)ccc21)c1ccc(O)cc1 [Example 19, 2-[5-fluoro-3-(4-hydroxyphenyl)-1H-indol-1-yl]-1-(4-hydroxyphenyl) ethanone] | 59.1 µM | –
O=C(Cn1cc(-c2ccc(O)cc2)c2ccccc21)c1ccc(O)cc1 [Example 20, 1-(4-hydroxyphenyl)-2-[3-(4-hydroxyphenyl)-1H-indol-1-yl]ethanone] | 241 µM | –
COc1cccc(N(CC(=O)c2ccc(O)c(O)c2O)CC(=O)c2ccc(O)c(O)c2O)c1 [Example 23, 2,2′-[(3-methoxyphenyl)azanediyl]-bis[1-(2,3,4-trihydroxyphenyl)ethanone]] | 27.4 µM | –
COc1cc(OC)cc(N(CC(=O)c2ccc(O)c(O)c2O)CC(=O)c2ccc(O)c(O)c2O)c1 [Example 24, 2,2′-[(3,5-dimethoxyphenyl)azanediyl]-bis[1-(2,3,4-trihydroxyphenyl)ethanone]] | 15.6 µM | –
COc1ccc2c(-c3ccc(O)cc3)cn(CC(=O)c3ccc(O)cc3)c2c1 [Example 25, potassium phenoxide salt of 1-(4-hydroxyphenyl)-2-[3-(4-hydroxyphenyl)-6-methoxy-1H-indol-1-yl]ethanone] | 19.5 µM | –
COc1cc(OC)c2c(-c3ccc(OC(C)=O)c(OC(C)=O)c3)cn(CC(=O)c3ccc(OC(C)=O)c(OC(C)=O)c3)c2c1 [Example 30, 4-{1-[2-(3,4-diacetoxyphenyl)-2-oxoethyl]-4,6-dimethoxy-1H-indol-3-yl}-1,2-phenylene diacetate] | – | EC50 [2]: 88 µM; EC50 [3]: 47 µM; EC50 [4]: 64 µM; EC50 [5]: 47 µM; EC50 [6]: 53 µM; EC50 [7]: 39 µM; EC50 [8]: 55 µM; EC50 [9]: 23 µM; EC50 [10]: 50 µM; EC50 [11]: 75 µM; EC50 [12]: 88 µM; EC50 [13]: 40 µM; EC50 [14]: 49 µM; EC50 [15]: 36 µM

Second part, led by results:

IC50 [1] | SMILES | also measured
56.7 µM | COc1ccc2c(-c3ccccc3O)cn(CC(=O)c3ccccc3O)c2c1 [Example 3, 1-(2-hydroxyphenyl)-2-[3-(2-hydroxyphenyl)-6-methoxy-1H-indol-1-yl]ethanone] | –
32.9 µM | COc1cc(OC)c2c(-c3ccccc3O)cn(CC(=O)c3ccccc3O)c2c1 [Example 7, 1-(2-hydroxyphenyl)-2-[3-(2-hydroxyphenyl)-4,6-dimethoxy-1H-indol-1-yl]ethanone] | –
181 µM | COc1cc(OC)c2c(-c3ccc(O)cc3O)cn(CC(=O)c3ccc(O)cc3O)c2c1 [Example 9, 1-(2,4-dihydroxyphenyl)-2-[3-(2,4-dihydroxyphenyl)-4,6-dimethoxy-1H-indol-1-yl]ethanone] | –
104 µM | COc1cc(OC)c2c(-c3ccc(F)cc3)cn(CC(=O)c3ccc(F)cc3)c2c1 [Example 12, 1-(4-fluorophenyl)-2-[3-(4-fluorophenyl)-4,6-dimethoxy-1H-indol-1-yl]ethanone] | –
104 µM | COc1cc(OC)c2c(-c3ccc(O)cc3)cn(C/C(=N/O)c3ccc(O)cc3)c2c1 [Example 21, (E)-1-(4-Hydroxyphenyl)-2-[3-(4-hydroxyphenyl)-4,6-dimethoxy-1H-indol-1-yl]ethanone oxime] | –
22.5 µM | COc1cc(OC)c2c(-c3ccc(O)cc3)cn(C/C(=N\O)c3ccc(O)cc3)c2c1 [Example 22, (Z)-1-(4-hydroxyphenyl)-2-[3-(4-hydroxyphenyl)-4,6-dimethoxy-1H-indol-1-yl]ethanone oxime] | –
40.4 µM | COc1cc(OC)c2c(-c3ccc(O)cc3)cn(CC(=O)c3ccc(O)cc3)c2c1 [Example 26, potassium phenoxide salt of 1-(4-hydroxyphenyl)-2-[3-(4-hydroxyphenyl)-4,6-dimethoxy-1H-indol-1-yl]ethanone] | –
46.8 µM | COc1cc(OC)c2c(-c3ccc(O)cc3)cn(CC(=O)c3ccc(O)cc3)c2c1 [Example 27, calcium phenoxide salt of 1-(4-hydroxyphenyl)-2-[3-(4-hydroxyphenyl)-4,6-dimethoxy-1H-indol-1-yl]ethanone] | –
